In PMC10160475, “Biological evaluation and in silico studies of novel compounds as potent TAAR1 agonists that could be used in schizophrenia treatment” (Frontiers in Pharmacology, 2023):

Tested on: catalepsy
Test: Catalepsy assay (bar test)
Type: in vivo, C57BI/6J mice
Conditions: 100 mg/kg p.o., 30 and 90 min after administration
Description: Twenty-four male C57BI/6J mice were divided randomly into four groups. Mice were placed in a room 1 h before testing. […] The front paws of mice were placed on a horizontal metal bar raised 2 inches above a Plexiglas™ platform 30 min and 90 min after administration. The time the front paws of mice were placed on the platform was recorded at ≤30 s per trial. Each test was repeated three times.

c1csc([C@@H]2CNCCO2)c1 [Compound 50B]
Time mice spent holding bars (catalepsy): did not increase this time
